In patent US20250304643A1, “PEPTIDE DUAL AGONISTS OF GIPR AND GLP2R” (BAINAN BIOTECH APS, priority 2021, published 2025):

Assays:
human GIPR [1] = molecular target: T1, human GIPR (Homo sapiens, UniProt P48546); type: cell-based; parameters: host or cells: COS-7; conditions: Emax normalized to highest concentration of endogenous ligand; Table 2
T1 sequence (P48546 22-466): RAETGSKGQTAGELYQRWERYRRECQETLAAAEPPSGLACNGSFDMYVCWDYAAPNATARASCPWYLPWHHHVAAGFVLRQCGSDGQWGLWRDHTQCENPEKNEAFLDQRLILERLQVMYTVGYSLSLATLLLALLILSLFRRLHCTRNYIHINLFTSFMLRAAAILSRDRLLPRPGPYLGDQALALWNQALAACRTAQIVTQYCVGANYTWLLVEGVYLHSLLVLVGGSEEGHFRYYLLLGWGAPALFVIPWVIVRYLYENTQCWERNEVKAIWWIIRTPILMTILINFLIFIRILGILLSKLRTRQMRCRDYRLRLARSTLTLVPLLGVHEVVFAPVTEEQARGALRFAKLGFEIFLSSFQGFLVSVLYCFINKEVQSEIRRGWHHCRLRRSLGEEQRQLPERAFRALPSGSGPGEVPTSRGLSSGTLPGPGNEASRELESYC

human GIPR [2] = molecular target: T1, human GIPR; type: cell-based; parameters: host or cells: HEK293; conditions: beta-arrestin 2 recruitment; for AUC ± SD: AUC of sigmoid curves up to 100 nM
Method: HEK293 cells were cultured at 10% CO2 and 37° C. in DMEM-GlutaMAX™-I supplemented with 10% FBS, 180 units/mL penicillin and 45 g/mL streptomycin. These cells were transfected using PEI for the beta-arrestin recruitment assay as described in detail in (van der Velden et al., 2021).
HEK293 cells were transiently transfected with human GIPR, the donor Rluc8-Arrestin-3-Sp1 (beta-arrestin 2 recruitment), the acceptor mem-linker-citrine-SH3, and the GPCR kinase 2 (GRK2). Two days following transfection, the cells were washed with PBS and resuspended in PBS with 5 mM glucose. Then, 85 μL of the cell suspension solution was added to each well of a white 96-well plate followed by the addition of PBS with 5 μM coelenterazine-h. Following 10 min incubation, increasing concentrations of ligands were added and incubated for an additional 30 min. Luminescence was measured with the Berthold Technologies Mithras Multilabel Reader (Rluc8 at 485±40 nm and YFP at 530±25 nm). The potencies (EC50 values) were determined by nonlinear regression using GraphPad Prism 9 (San Diego, California, USA). Sigmoid curves were fitted logistically. The efficacies (Emax values) were determined by normalization to the highest concentration applied of the endogenous ligand (GIP) for the GIPR.

rat GIPR = molecular target: T2, rat GIPR (Rattus norvegicus, UniProt P43219); experiment: HitHunter cAMP assay in transiently transfected COS-7 cells, rat GIPR; type: cell-based; conditions: Emax normalized to highest concentration of endogenous ligand
T2 construct: expressed in transfected cells; host or cells: COS-7
T2 sequence (P43219 19-455): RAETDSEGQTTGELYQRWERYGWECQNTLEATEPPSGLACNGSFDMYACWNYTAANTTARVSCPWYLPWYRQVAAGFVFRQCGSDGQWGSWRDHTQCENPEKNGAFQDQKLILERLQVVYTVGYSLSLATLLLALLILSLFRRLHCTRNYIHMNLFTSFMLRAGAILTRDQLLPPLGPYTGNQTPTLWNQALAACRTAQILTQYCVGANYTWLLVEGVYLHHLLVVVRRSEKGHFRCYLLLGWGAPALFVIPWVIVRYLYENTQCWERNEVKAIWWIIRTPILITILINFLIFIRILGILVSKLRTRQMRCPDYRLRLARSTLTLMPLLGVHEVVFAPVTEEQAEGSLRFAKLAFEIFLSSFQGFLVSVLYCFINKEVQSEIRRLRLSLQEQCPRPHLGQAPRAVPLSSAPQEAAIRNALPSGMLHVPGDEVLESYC
Method: (§1) The next day the assay was initiated by washing with HEPES buffered saline (HBS) and followed by an incubation step with assay buffer (HBS added 1 mM isobutyl-1-methylxanthine (IBMX)) for 30 min at 37° C. The ligands were then added and incubated for an additional 30 min at 37° C. After ligand incubation, the HitHunter® CAMP assay (Eurofins DiscoverX, Fremont, […] USA) was carried out according to the manufacturer's instructions. Luminescence was measured by PerkinElmer™ EnVision 2014 Multilabel Reader (PerkinElmer, Waltham, MA). The potencies (EC50 values) were determined by nonlinear regression using GraphPad Prism 9 (San Diego, California, USA). Sigmoid curves were fitted logistically. The efficacies (Emax values) were determined by normalization to the highest concentration applied of the endogenous ligand for each receptor.

[3] = system: bone turnover markers CTX (resorption) and P1NP (formation); experiment: bone turnover markers CTX and P1NP in rats after SC injection; type: in vivo, rat
Method: Sprague Dawley female rats, age 10 w (Janvier Labs, France), n=4, were fasted from 06:00 until after final blood sample. A baseline blood sample was taken just before subcutaneous administration of compound at 10:00. Compounds were dissolved in 50 mM phosphate buffer, pH 7.5+0.1% Haemaccel. Dose: Compound no. 11 4248.5 μg/kg.
Blood samples were taken at 10:00, 14:00, 18:00 and 22:00. Plasma was obtained within 20 min after blood sampling and stored at −20C.
CTX and P1NP were measured using RatLaps (CTX-I) EIA and Rat/mouse P1NP EIA (Immunidiagnosticsystems, UK) according to protocols.
Data are presented using GraphPad Prism V9.3.0 as % of baseline as mean+/−SEM and analyzed by 2-way Anova with Sidaks multiple comparisons tests or by unpaired t-test.

rat GLP-2R = molecular target: T3, rat GLP-2R (Rattus norvegicus, UniProt Q9Z0W0); experiment: HitHunter cAMP assay in transiently transfected COS-7 cells, rat GLP-2R; type: cell-based; conditions: Emax normalized to highest concentration of endogenous ligand
T3 construct: expressed in transfected cells; host or cells: COS-7
T3 sequence (Q9Z0W0 1-550): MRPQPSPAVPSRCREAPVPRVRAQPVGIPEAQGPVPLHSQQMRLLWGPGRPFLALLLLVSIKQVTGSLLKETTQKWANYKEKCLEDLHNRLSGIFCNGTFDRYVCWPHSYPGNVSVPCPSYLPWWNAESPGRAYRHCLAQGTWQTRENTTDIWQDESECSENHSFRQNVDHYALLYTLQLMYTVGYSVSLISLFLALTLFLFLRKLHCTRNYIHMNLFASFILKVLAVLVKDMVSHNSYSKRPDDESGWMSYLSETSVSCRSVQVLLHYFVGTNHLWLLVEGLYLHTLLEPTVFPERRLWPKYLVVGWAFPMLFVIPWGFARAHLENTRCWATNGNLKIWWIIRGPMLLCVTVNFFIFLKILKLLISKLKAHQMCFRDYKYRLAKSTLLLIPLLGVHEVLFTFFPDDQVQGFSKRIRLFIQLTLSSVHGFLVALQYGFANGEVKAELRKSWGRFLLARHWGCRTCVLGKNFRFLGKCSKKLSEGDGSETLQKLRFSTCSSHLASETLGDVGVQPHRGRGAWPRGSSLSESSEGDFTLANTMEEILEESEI
Method: as §1

human GLP-1R = molecular target: T4, human GLP-1R (Homo sapiens, UniProt P43220); experiment: HitHunter cAMP assay in transiently transfected COS-7 cells, human GLP-1R; type: cell-based; conditions: Emax normalized to highest concentration of endogenous ligand; Table 3
T4 construct: host or cells: COS-7
T4 sequence (P43220 24-463): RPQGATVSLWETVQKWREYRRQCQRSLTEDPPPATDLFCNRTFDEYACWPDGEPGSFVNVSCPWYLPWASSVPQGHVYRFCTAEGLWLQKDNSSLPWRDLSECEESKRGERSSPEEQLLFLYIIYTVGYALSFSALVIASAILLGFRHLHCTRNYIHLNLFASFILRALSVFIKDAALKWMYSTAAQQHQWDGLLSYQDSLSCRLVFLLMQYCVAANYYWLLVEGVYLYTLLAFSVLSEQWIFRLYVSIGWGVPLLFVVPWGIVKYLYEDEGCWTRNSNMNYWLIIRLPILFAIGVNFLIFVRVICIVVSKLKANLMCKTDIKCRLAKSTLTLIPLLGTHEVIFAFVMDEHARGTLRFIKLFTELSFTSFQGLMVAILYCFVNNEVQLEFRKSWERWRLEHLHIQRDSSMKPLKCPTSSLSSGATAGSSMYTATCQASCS
Method: as §1

human SNAP-GIPR = molecular target: T5, human SNAP-GIPR (Homo sapiens, UniProt P48546); type: cell-based; parameters: AUC ± SD: unit not given beside the values
T5 construct: host or cells: HEK293A
T5 sequence (P48546 22-466): T1 sequence (P48546 22-466)

macaque GIPR = experiment: HitHunter cAMP assay in transiently transfected COS-7 cells, macaque GIPR; type: cell-based
Method: as §1

human GIPR [4] = molecular target: T1, human GIPR; conditions: 10 nM ligand for 90 min, then 125I-GIP(1-42) labelling; FIG. 3
Method: COS-7 cells were cultured at 10% CO2 and 37° C. in Dulbecco's Modified Eagle Medium (DMEM) 1885 supplemented with 10% fetal bovine serum (FBS), 2 mM glutamine, 180 units/ml penicillin, and 45 g/ml streptomycin.
The following day, the media of the cells were changed to DMEM supplemented 2% FBS and preincubated either with or without 10 nM ligand for 90 min. […] After incubation, the cells were washed twice in 100 μl per well ice-cold binding buffer and lysed using 175 μl per well of 200 mM NaOH with 1% SDS for 30 min. The samples were analyzed by the Wizard Gamme Counter (PerkinElmer, Waltham, MA). Data was analyzed by comparing the counts measured from the ligand preincubated and non-preincubated cells.

With “H-Aib-DGTFISDY-K(γGlu-C16)-TILDNLAARDFINWLIQTKITK-OH [Compound no. 11]” the “Efficacy GIPR” value (human GIPR [1]) was 115, the “AUC ± SD” value (human GIPR [2]) was 61 ± 14 and the “Emax ± SD (%)” value (human GIPR [2]; normalized to highest concentration of GIP, NA = no activity) was 41 ± 6%. The “rGIPR Efficacy (%)” value (rat GIPR) was 107.0%, the “formation marker P1NP, % of baseline” value ([3]; female rats, SC 4248.5 μg/kg, time 14:00 and 18:00, FIG. 2B) was “increase” and the “resorption marker CTX, % of baseline” value ([3]; female rats, SC 4248.5 μg/kg, time point 14:00, p-value=0.08, FIG. 2A) was “reduced (ns) increase”. The “CTX AUC” value ([3]; rat, in vivo, sc) was “tendency towards a reduction”, the “rGLP-2R Efficacy (%)” value (rat GLP-2R) was 104.0% and the “Efficacy GLP-1R” value (human GLP-1R) was 11. The “AUC ± SD” value (human SNAP-GIPR) was 19 ± 2, the “Emax ± SD (%)” value (human SNAP-GIPR; GIPR internalization, NA = no activity) was 24 ± 6% and the “maGIPR Efficacy (%)” value (macaque GIPR; Emax normalized to highest concentration of the endogenous ligand, COS-7 cells) was 92.5%. The “maGIPR pEC50” value (macaque GIPR; cAMP, transiently transfected COS-7 cells) was 9.0.
“YAEGTFISDYSIAMDKIHQQDFVNWLLAQKGKKNDWKHNITQ [hGIP, reference compound]” was tested, and the “AUC ± SD” value (human GIPR [2]) was 223 ± 16, the “GIPR expression at the cell surface following ligand preincubation” value (human GIPR [4]) was “downregulation of the GIPR from the cell surface” and the “AUC ± SD” value (human SNAP-GIPR) was 204 ± 3.
